Results taken from patent US11980600B2, “Diagnostic assay and treatment for preeclampsia” (MIRZYME THERAPEUTICS LIMITED, priority 2015, dated 2024).

How the values were obtained:
[1] = test system: Ad-sFlt-1 injected Hmox1−/− mice; experiment: Co-treatment rescue study of renal injury in non-pregnant Hmox1-/- mice injected with Ad-sFlt-1; format: in vivo; details: for proteinuria (24 h urinary albumin:creatinine ratio) / urinary KIM-1 levels: high sFlt-1; for renal glomerulosclerosis and mesangiolysis (glomerular histology): high sFlt-1, nor-NOHA daily i.p., L-arginine 25 g/L in drinking water
Procedure: Non-pregnant studies were carried out twelve-week-old Hmox1^−/− mice and Hmox1^+/+ mice. Animals were injected with 1×10^9 PFU of Ad-sFlt-1 or Ad-CMV (control) adenovirus by injection into the tail vein. Nine days after adenovirus administration, mice were individually placed in metabolic cages for 24 hours. Body weight, food and water intake, and urine volume were measured. Following urine measurements, blood sampling was undertaken on day 10, the animals were euthanized, and their kidneys and livers were collected for further analysis. Co-treatment rescue studies using arginase inhibitor and/or L-arginine supplementation were also undertaken in non-pregnant Hmox1^−/− mice and Hmox1^+/+ animals. Mice were injected intraperitoneally with nor-NOHA (Bachem, Bubendorf, Switzerland) daily. L-arginine (Sigma-Aldrich, St. Louis, MO) was given to the animals by supplementing the drinking water with 25 g/L one week before the Ad-sFlt-1 adenovirus injection and until the end of the study.
(§1) Urinary albumin was determined using Albuwell-M kits (Exocell Inc, Philadelphia, PA). Enzyme-linked immunosorbent assay kits for human and murine sFlt-1, KIM-1, and PIGF were obtained from R&D Systems and performed according to the manufacturer's specifications.
Human and murine placental tissues were prepared for immunohistochemistry as previously described. Immunohistochemistry was performed by using antibodies to Arginase-1, Ass1, Asl, and 3-nitrotyrosine. The following antibodies were used: (1) anti-arginase-1 antibody (1:50, Genetex); (2) anti-argininosuccinate synthase (1:100), Abcam); (3) anti-argininosuccinate lyase (1:100, Abcam) and (4) anti-3-Nitrotyrosine (1:100 dilution, Abcam). Sections from mouse kidneys or human placental biopsies were rehydrated, blocked with the use of normal serum, and incubated with primary antibody for 2 hours at room temperature. Visualization was performed by using a Vectastain ABC kit, with DAB. Slides were counterstained with hematoxylin. The staining was analysed by using a Nikon inverted microscope and Image Pro-Plus image analysis software.

[2] = test system: Ad-sFlt-1 injected Hmox1+/− pregnant mice; experiment: Rescue of preeclampsia phenotype in timed pregnant Hmox1+/- mice injected with Ad-sFlt-1; format: in vivo; details: for signs of preeclampsia overall: Ad-sFlt-1, agent given alone; for average fetal weight / fetal resorption rate / mean arterial blood pressure (MAP) / hypertension / proteinuria (24 h urinary albumin:creatinine ratio): Ad-sFlt-1, day 18 of gestation
Procedure: Pregnant mice studies were carried out ten to twelve-week-old Hmox1^+/− mice and Hmox1^+/+ mice or wild-type C57/B16 mice. The first day of pregnancy (E0.5) was defined by the presence of a vaginal plug the following morning. On E10.5 (second trimester) pregnant mice were injected with 1×10^9 PFU of Ad-sFlt-1 or Ad-CMV (control) adenovirus by injection into the tail vein. For RUPP study, on day 13 of gestation, time pregnant C57/Bl6 mice were anesthetized. An incision was made down the midline of the body and the abdominal aorta was isolated. The vessel was then restricted with 7.0 suture tied around a blunt needle (approximate diameter of 1 mm^2) placed on the aorta. The needle was then removed. Right ovarian artery was restricted with 7.0 suture. The incisions were closed and the mice were allowed to recover for five days. For the low-dose sFlt-1 experiment, 1×10^8 PFU of adenovirus expressing sFlt-1 was used. On E17.5 mice were individually placed in metabolic cages for 24 hours and arterial blood pressure was measured at E18.5 as described previously (Wang et al. 2013). In brief, mice were anesthetized by using a ketamine/xylazine cocktail, and the carotid artery was isolated and cannulated with a Millar 1-French Mikro-Tip pressure catheter connected to a pressure transducer (ADInstruments Ltd, Oxford, UK). After 30 minutes of blood pressure stabilization, arterial pressure was recorded and averaged over an additional 10-minute period. Following measurements, blood sampling was undertaken, the animals were euthanized, and their kidneys, livers, and placentas were collected. The live fetuses and placentas were counted and weighed. All experimentation was conducted in accordance with the United Kingdom Animals (Scientific Procedures) Act, 1986 with the use of procedures approved by the University Ethical Review Committee.
as §1

N=C(N)NCCC[C@H](N)C(=O)O [L-arginine]
proteinuria (24 h urinary albumin:creatinine ratio) [1]: improvements were absent | urinary KIM-1 levels [1]: improvements were absent | renal glomerulosclerosis and mesangiolysis (glomerular histology) [1]: improvements were absent | signs of preeclampsia overall [2]: failed to abolish all signs of preeclampsia | average fetal weight [2]: no significant improvement | fetal resorption rate [2]: no significant improvement | mean arterial blood pressure (MAP) / hypertension [2]: significantly reduced | proteinuria (24 h urinary albumin:creatinine ratio) [2]: no significant improvements

N=C(NO)NCC[C@H](N)C(=O)O [nor-NOHA, N-w-hydroxy-L-nor-arginine]
proteinuria (24 h urinary albumin:creatinine ratio) [1]: improvements were absent | urinary KIM-1 levels [1]: improvements were absent | renal glomerulosclerosis and mesangiolysis (glomerular histology) [1]: improvements were absent | signs of preeclampsia overall [2]: failed to abolish all signs of preeclampsia | average fetal weight [2]: no significant effect | fetal resorption rate [2]: reduced | mean arterial blood pressure (MAP) / hypertension [2]: no significant effect | proteinuria (24 h urinary albumin:creatinine ratio) [2]: no significant improvements
